Experiments:
[1] = test system: healthy middle-aged men and women; assay: Rey Auditory-Verbal Learning Test (RAVLT), learning and memory; format: in vivo, human; details: 4 g oral single dose; mean (SD)
Experimental: Procedure: Each participant attended the research facility on a single day for a period of 3.5 hours during which they completed 2 testing sessions, 1 baseline test and 1 post-treatment test. All testing took place between 08:00-12:00 and 13:00-18:00. On testing days, participants abstained from consuming any stimulants (i.e., tea, coffee, other caffeine containing products) for 2 hours before their visit. All volunteers were fasted for 2 hours before their visit. Each study day comprised of a practice module, a pre-treatment baseline testing session on the mood and cognitive measures, this was immediately followed by a pre-treatment blood glucose measurement, and administration of treatment. Participants were allocated, using a random number generator randomization code, to one of three treatment conditions: sucrose (icing sugar), placebo (rice flour) and plant saccharides (Ambrotose®Complex). Given the different densities of the three supplement conditions, each treatment was weighed and measured with scoop amounts to provide equated 4 g doses. The supplement was delivered to each participant on a tablespoon with 100 ml of water. Each participant was instructed by the inventors to carefully consume the powder, without breathing in or out over it, by putting it in their mouth and washing it down with the water provided within 5 minutes. Additional water was provided on request. Participants were then instructed to rest for 30 minutes to allow for absorption. Following the 30 minute absorption time, a finger-capillary blood glucose measurement was taken. The post treatment testing session then commenced with alternate forms of the RAVLT and Cognitive demand battery. Following completion of the testing session, a final blood glucose measurement was taken. […] Learning and Memory: The Rey Auditory-Verbal Learning Test (RAVLT) was used to assess immediate recall, delayed recall, learning and recognition memory. The examiner reads aloud 15 nouns (list A) over five trials and after each trial, participants are asked to recall, in any order, as many of the 15 words as possible. Scores for the 5 trials are summed to produce a measure of immediate recall, the difference between trial 5 and 1 is used as a measure of learning. After a sixth trial consisting of 15 different words (list B) participants are again required to recall the words that were presented in list A (trial 7), and then again after an interval of 60 minutes (trial 8). The scores from trials 7 and 8 are used to produce a measure of delayed recall, the difference between the words recalled in trials 8 and 7 is used as a measure of forgetting, the difference between trial 7 and trial 5 is used as a score of interference. After trial 8, participants are presented with a sheet of 50 words containing the words from lists A and B among 20 distracter words. Participants are asked to recognize the words from lists A and B and indicate the list they came from. Each word correctly identified is awarded one point producing a measure of recognition. Statistical Analysis: The primary outcomes were memory performance, mood and performance on the Cognitive Demand Battery (CDB) and the subjective ratings of mental fatigue. All data were analyzed using SPSS 17 statistical package as “change from pre dose baseline scores', using Analysis of Variance (ANOVA). To test for chance baseline differences which may have skewed change-from-baseline scores, prior to the primary statistical analysis, one-way ANOVA's with Bonferroni correction, were run all on all baseline demographics, general mood and well-being measures, and all pre-dose baseline measures to determine any potential covariates in outcomes.

[2] = test system: healthy middle-aged men and women; assay: Cognitive Demand Battery: Serial Sevens subtraction task; format: in vivo, human; details: 4 g oral; at 20 min of battery; vs placebo
Experimental: Procedure: Each participant attended the research facility on a single day for a period of 3.5 hours during which they completed 2 testing sessions, 1 baseline test and 1 post-treatment test. All testing took place between 08:00-12:00 and 13:00-18:00. On testing days, participants abstained from consuming any stimulants (i.e., tea, coffee, other caffeine containing products) for 2 hours before their visit. All volunteers were fasted for 2 hours before their visit. Each study day comprised of a practice module, a pre-treatment baseline testing session on the mood and cognitive measures, this was immediately followed by a pre-treatment blood glucose measurement, and administration of treatment. Participants were allocated, using a random number generator randomization code, to one of three treatment conditions: sucrose (icing sugar), placebo (rice flour) and plant saccharides (Ambrotose®Complex). Given the different densities of the three supplement conditions, each treatment was weighed and measured with scoop amounts to provide equated 4 g doses. The supplement was delivered to each participant on a tablespoon with 100 ml of water. […] All data were analyzed using SPSS 17 statistical package as “change from pre dose baseline scores', using Analysis of Variance (ANOVA). […]

OC[C@H]1O[C@@](CO)(O[C@H]2O[C@H](CO)[C@@H](O)[C@H](O)[C@H]2O)[C@@H](O)[C@@H]1O [Sucrose, sucrose] was tested, and the “RAVLT Forgetting (trial 8-trial7), post-dose change from baseline score” value [1] was −1.69 (3.06), the “RAVLT Interference (trial 7-trial 5), post-dose change from baseline score” value [1] was −1.34 (2.18) and the “RAVLT Learning (trial 5-trial1), post-dose change from baseline score” value [1] was 0.07 (2.78). The “RAVLT Recog A, post-dose change from baseline score” value [1] was −2.38 (2.46), the “RAVLT Recog B, post-dose change from baseline score” value [1] was −3.38 (3.55) and the “RAVLT Sum Immediate Recall, post-dose change from baseline score” value [1] was −1.88 (5.83). The “RAVLT Sum Recognition, post-dose change from baseline score” value [1] was −5.76 (4.91), the “RAVLT Sum delayed recall, post-dose change from baseline score” value [1] was −4.76 (4.18) and the “RAVLT Trial 1, post-dose change from baseline score” value [1] was −0.26 (2.23). The “RAVLT Trial 2, post-dose change from baseline score” value [1] was −0.57 (2.13), the “RAVLT Trial 3, post-dose change from baseline score” value [1] was −0.42 (1.83) and the “RAVLT Trial4, post-dose change from baseline score” value [1] was −0.42 (1.72). For the same compound, the “RAVLT Trial 5, post-dose change from baseline score” value [1] was −0.19 (1.72), the “RAVLT Trial 6 (List B), post-dose change from baseline score” value [1] was −0.84 (2.16) and the “RAVLT Trial 7, post-dose change from baseline score” value [1] was −1.53 (2.37). The “RAVLT Trial 8, post-dose change from baseline score” value [1] was −3.23 (2.80) and the “Serial 7s number of correct answers, pairwise comparison” value [2] was “making significantly more correct responses than the placebo group (p=0.04)”.

— US20120276208A1, “ACUTE COGNITIVE AND MOOD EFFECTS OF PLANT POLYSACCHARIDES IN ADULT HUMAN SUBJECTS” (UNIVERSITY OF SOUTH AUSTRALIA, priority 2011, published 2012)
